How the values were obtained:
[1] = test system: NCI-H358 cells (K-Ras G12C); assay: CellTiter-Glo cell viability, NCI-H358; format: cell-based, human; conditions: Homo sapiens, NCI-H358, 120 h, K-Ras G12C, 5-day treatment; read-out: H358 Cell Viability IC50
How it was run: (§1)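 Compounds dispensed directly onto seeded cells; on day 5 plates equilibrated ~30 min to room temperature and luminescence read. Signal normalized to DMSO average (%) and fitted by four-parameter logistic.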

[2] = test system: Capan-1 cells (K-Ras G12V); assay: CellTiter-Glo cell viability, Capan-1; format: cell-based, human; conditions: Homo sapiens, CAPAN-1, 120 h, K-Ras G12V, 5-day treatment; read-out: Capan-1 Cell Viability IC50
How it was run: as §1

KRAS G12C = KRAS G12C (Homo sapiens (Human), UniProt P01116+P62937, G12C); assay: Ras-Raf disruption/FRET/MOA assay (BRAF RBD, Cyclophilin A); format: biochemical; conditions: read-out: KRAS G12C FRET IC50
Sequence of KRAS G12C (P01116-2 other isoform, or with tags, fused parts or gaps G12C): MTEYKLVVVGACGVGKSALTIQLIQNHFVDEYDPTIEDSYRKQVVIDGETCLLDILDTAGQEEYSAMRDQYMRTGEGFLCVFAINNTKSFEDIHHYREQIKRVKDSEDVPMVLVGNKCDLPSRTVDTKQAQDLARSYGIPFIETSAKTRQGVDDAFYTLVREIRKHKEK
Sequence of KRAS G12C (P62937 whole entry): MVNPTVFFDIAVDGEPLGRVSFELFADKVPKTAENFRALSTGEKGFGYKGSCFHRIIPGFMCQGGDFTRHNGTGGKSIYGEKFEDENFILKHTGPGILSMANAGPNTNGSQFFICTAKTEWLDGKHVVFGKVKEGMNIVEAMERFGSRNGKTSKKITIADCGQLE
How it was run: (§2)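 First, 25 μM Cyclophilin A, 12.5 nM His6-Ras-GMPPNP and 50 nM GST-BRAF RBD are mixed with diluted compound at pH 7.3. Next, 3 h at 25° C. Then 10 nM anti-His Eu-W1024 plus 50 nM anti-GST allophycocyanin for 1.5 h before TR-FRET reading.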

KRAS G12D = KRAS G12D (Homo sapiens (Human), UniProt P01116+P62937, G12D); assay: as above; format: biochemical; conditions: read-out: KRAS G12D FRET IC50
Sequence of KRAS G12D (P01116 other isoform, or with tags, fused parts or gaps G12D): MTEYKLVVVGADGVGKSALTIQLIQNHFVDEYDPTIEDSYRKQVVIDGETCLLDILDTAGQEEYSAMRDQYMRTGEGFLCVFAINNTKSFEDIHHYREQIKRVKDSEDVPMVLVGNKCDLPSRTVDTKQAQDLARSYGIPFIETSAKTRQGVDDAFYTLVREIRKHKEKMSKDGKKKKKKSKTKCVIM
Sequence of KRAS G12D (P62937 whole entry): as the sequence (P62937 whole entry) above
How it was run: as §2

KRAS G12S = KRAS G12S (Homo sapiens (Human), UniProt P01116+P62937, G12S); assay: as above; format: biochemical; conditions: read-out: KRAS G12S FRET IC50
Sequence of KRAS G12S (P01116 other isoform, or with tags, fused parts or gaps G12S): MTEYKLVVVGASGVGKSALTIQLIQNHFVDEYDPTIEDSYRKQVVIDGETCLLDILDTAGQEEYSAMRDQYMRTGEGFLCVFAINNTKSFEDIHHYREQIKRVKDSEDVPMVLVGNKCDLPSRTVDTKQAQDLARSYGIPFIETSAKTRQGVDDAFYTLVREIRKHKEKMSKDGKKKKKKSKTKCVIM
Sequence of KRAS G12S (P62937 whole entry): as the sequence (P62937 whole entry) above
How it was run: as §2

KRAS G12V = KRAS G12V (Homo sapiens (Human), UniProt P01116+P62937, G12V); assay: as above; format: biochemical; conditions: read-out: KRAS G12V FRET IC50
Sequence of KRAS G12V (P01116 other isoform, or with tags, fused parts or gaps G12V): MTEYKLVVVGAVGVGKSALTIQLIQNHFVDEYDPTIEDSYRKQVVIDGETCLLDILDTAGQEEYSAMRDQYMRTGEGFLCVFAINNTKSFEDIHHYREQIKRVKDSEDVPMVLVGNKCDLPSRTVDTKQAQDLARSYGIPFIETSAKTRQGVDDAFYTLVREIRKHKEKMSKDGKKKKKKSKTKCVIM
Sequence of KRAS G12V (P62937 whole entry): as the sequence (P62937 whole entry) above
How it was run: as §2

KRAS G13C = KRAS G13C (Homo sapiens (Human), UniProt P01116+P62937, G13C); assay: as above; format: biochemical; conditions: read-out: KRAS G13C FRET IC50
Sequence of KRAS G13C (P01116 other isoform, or with tags, fused parts or gaps G13C): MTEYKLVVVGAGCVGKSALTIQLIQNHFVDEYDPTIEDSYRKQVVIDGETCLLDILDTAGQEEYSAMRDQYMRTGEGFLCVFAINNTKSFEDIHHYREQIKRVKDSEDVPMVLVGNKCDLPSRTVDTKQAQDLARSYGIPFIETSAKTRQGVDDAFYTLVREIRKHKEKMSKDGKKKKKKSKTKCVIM
Sequence of KRAS G13C (P62937 whole entry): as the sequence (P62937 whole entry) above
How it was run: as §2

KRAS G13D = KRAS G13D (Homo sapiens (Human), UniProt P01116+P62937, G13D); assay: as above; format: biochemical; conditions: read-out: KRAS G13D FRET data IC50
Sequence of KRAS G13D (P01116 other isoform, or with tags, fused parts or gaps G13D): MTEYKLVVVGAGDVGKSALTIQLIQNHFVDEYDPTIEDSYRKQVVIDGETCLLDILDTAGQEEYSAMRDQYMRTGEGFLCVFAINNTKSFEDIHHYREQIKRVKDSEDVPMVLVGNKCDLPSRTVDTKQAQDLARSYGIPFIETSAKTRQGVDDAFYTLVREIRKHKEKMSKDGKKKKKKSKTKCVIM
Sequence of KRAS G13D (P62937 whole entry): as the sequence (P62937 whole entry) above
How it was run: as §2

KRAS Q61H = KRAS Q61H (Homo sapiens (Human), UniProt P01116+P62937, Q61H); assay: as above; format: biochemical
Sequence of KRAS Q61H (P01116 other isoform, or with tags, fused parts or gaps Q61H): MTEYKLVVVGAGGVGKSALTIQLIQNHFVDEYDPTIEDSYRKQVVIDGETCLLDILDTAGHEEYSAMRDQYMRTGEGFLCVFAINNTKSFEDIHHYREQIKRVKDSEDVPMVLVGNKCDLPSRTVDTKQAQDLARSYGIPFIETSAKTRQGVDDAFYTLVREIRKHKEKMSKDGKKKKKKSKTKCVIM
Sequence of KRAS Q61H (P62937 whole entry): as the sequence (P62937 whole entry) above
How it was run: as §2

KRAS WT = KRAS WT (Homo sapiens (Human), UniProt P01116+P62937); assay: as above; format: biochemical; conditions: read-out: KRAS WT FRET data IC50
Sequence of KRAS WT (P01116 other isoform, or with tags, fused parts or gaps): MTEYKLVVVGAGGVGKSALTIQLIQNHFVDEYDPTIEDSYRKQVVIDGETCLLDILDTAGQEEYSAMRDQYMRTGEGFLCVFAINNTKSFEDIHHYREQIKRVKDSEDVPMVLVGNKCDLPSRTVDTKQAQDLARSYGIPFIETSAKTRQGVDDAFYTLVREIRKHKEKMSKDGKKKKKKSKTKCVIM
Sequence of KRAS WT (P62937 whole entry): as the sequence (P62937 whole entry) above
How it was run: as §2

NRAS G12C = NRAS G12C (Homo sapiens (Human), UniProt P01111+P62937, G12C); assay: as above; format: biochemical; conditions: read-out: NRAS G12C FRET data IC50
Sequence of NRAS G12C (P01111 whole entry G12C): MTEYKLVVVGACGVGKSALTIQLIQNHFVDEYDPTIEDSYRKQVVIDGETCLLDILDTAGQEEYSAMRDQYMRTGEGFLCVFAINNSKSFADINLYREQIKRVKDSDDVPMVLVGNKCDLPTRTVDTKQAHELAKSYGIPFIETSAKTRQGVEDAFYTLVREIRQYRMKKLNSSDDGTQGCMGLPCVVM
Sequence of NRAS G12C (P62937 whole entry): as the sequence (P62937 whole entry) above
How it was run: as §2

NRAS Q61K = NRAS Q61K (Homo sapiens (Human), UniProt P01111+P62937, Q61K); assay: as above; format: biochemical
Sequence of NRAS Q61K (P01111 whole entry Q61K): as the sequence (P01111 whole entry G12C) above, with C12G, Q61K counted along it
Sequence of NRAS Q61K (P62937 whole entry): as the sequence (P62937 whole entry) above
How it was run: as §2

NRAS Q61R = NRAS Q61R (Homo sapiens (Human), UniProt P01111+P62937, Q61R); assay: as above; format: biochemical
Sequence of NRAS Q61R (P01111 whole entry Q61R): as the sequence (P01111 whole entry G12C) above, with C12G, Q61R counted along it
Sequence of NRAS Q61R (P62937 whole entry): as the sequence (P62937 whole entry) above
How it was run: as §2

NRAS WT = NRAS WT (Homo sapiens (Human), UniProt P01111+P62937); assay: as above; format: biochemical
Sequence of NRAS WT (P01111 whole entry): as the sequence (P01111 whole entry G12C) above, with C12G counted along it
Sequence of NRAS WT (P62937 whole entry): as the sequence (P62937 whole entry) above
How it was run: as §2

NCI-H358 (K-Ras G12C) = assay: CellTiter-Glo cell viability assay, NCI-H358; format: cell-based, human; conditions: Homo sapiens, NCI-H358, 120 h, 5-day treatment; read-out: H358 Cell Viability assay data (K-Ras G12C, IC50)
How it was run: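 NCI-H358 (K-Ras G12C) cells treated with compound dispensed directly into plates. CellTiter-Glo luminescence read on day 5 after ~30 min equilibration to room temperature. Signal normalised to DMSO average ×100, then fitted with a four-parameter logistic model.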

[3] = molecular target: K-Ras G12C(GMP-PNP) binding to BRAF RBD (Homo sapiens (Human), UniProt P01116+P62937, G12C); assay: Disruption of BRAF RBD interaction with K-Ras (FRET / MOA assay), K-Ras G12C; format: biochemical; conditions: read-out: KRAS G12C FRET IC50
Sequence of K-Ras G12C(GMP-PNP) binding to BRAF RBD (P01116 other isoform, or with tags, fused parts or gaps G12C): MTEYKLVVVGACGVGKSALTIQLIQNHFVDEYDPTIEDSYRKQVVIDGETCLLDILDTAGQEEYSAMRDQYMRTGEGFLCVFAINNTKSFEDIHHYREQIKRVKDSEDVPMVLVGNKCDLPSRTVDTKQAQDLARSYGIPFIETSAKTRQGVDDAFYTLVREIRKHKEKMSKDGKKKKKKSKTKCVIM
Sequence of K-Ras G12C(GMP-PNP) binding to BRAF RBD (P62937 whole entry): as the sequence (P62937 whole entry) above
How it was run: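 Cpd 10-pt 3-fold dilution, top 30 μM final; Ras/CypA/BRAF RBD mix 3 h, 25° C. Add anti-His Eu-W1024 10 nM + anti-GST APC 50 nM final, 1.5 h. Readout TR-FRET ratio decrease vs DMSO → IC50.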

| IC50 [1] | IC50 (KRAS G12C) | IC50 (KRAS G12D) | IC50 (KRAS G12S) | IC50 (KRAS G12V) | IC50 (KRAS G13C) | IC50 (KRAS G13D) | IC50 (KRAS Q61H) | IC50 (KRAS WT) | IC50 (NRAS G12C) | IC50 (NRAS Q61K) | IC50 (NRAS Q61R) | IC50 (NRAS WT) | IC50 (NCI-H358 (K-Ras G12C)) | IC50 [3] | Structure (SMILES) | IC50 [2] |
| --- | --- | --- | --- | --- | --- | --- | --- | --- | --- | --- | --- | --- | --- | --- | --- | --- |
| 1000 to 10000 nM | 100 to 1000 nM | 1000 to 10000 nM | 1000 to 10000 nM | 100 to 1000 nM | 100 to 1000 nM | 1000 to 10000 nM | 100 to 1000 nM | 1000 to 10000 nM | 100 to 1000 nM | 100 to 1000 nM | 1000 to 10000 nM | 100 to 1000 nM | 10 to 100 nM | 10 to 100 nM | CCn1c(-c2cccnc2[C@H](C)OC)c2c3cc(ccc31)-c1csc(n1)C[C@H](NC(=O)[C@@H]1CCO1)C(=O)N1CCC[C@H](N1)C(=O)OCC(C)(C)C2 [Compound A359] | 1000 to 10000 nM |
|  | 100 to 1000 nM | 1000 to 10000 nM | 100 to 1000 nM | 1000 to 10000 nM | 100 to 1000 nM | 100 to 1000 nM | 100 to 1000 nM | 100 to 1000 nM | 100 to 1000 nM | 1000 to 10000 nM | 1000 to 10000 nM | 100 to 1000 nM | 10 to 100 nM | 100 to 1000 nM | CCn1c(-c2cccnc2[C@H](C)OC)c2c3cc(ccc31)-c1csc(n1)C[C@H](NC(=O)[C@H](C(C)C)N(C)C(=O)N(C)C[C@H]1CCCN1C)C(=O)N1CCC[C@H](N1)C(=O)OCC(C)(C)C2 [Compound A473] | 100 to 1000 nM |
| 100 to 1000 nM | 100 to 1000 nM | 1000 to 10000 nM | 100 to 1000 nM | 1000 to 10000 nM | 100 to 1000 nM | 1000 to 10000 nM | 100 to 1000 nM | 100 to 1000 nM | 100 to 1000 nM | 1000 to 10000 nM | 1000 to 10000 nM | 100 to 1000 nM | 100 to 1000 nM | 100 to 1000 nM | CCn1c(-c2cccnc2[C@H](C)OC)c2c3cc(ccc31)-c1csc(n1)C[C@H](NC(=O)[C@H](C(C)C)N(C)C(=O)N1CC[C@H]1CN(C)C)C(=O)N1CCC[C@H](N1)C(=O)OCC(C)(C)C2 [Compound A508] | 100 to 1000 nM |

Further lines, the compound ahead of its results:

| Structure (SMILES) | IC50 [1] | IC50 (KRAS G12C) | IC50 (KRAS G12D) | IC50 (KRAS G12S) | IC50 (KRAS G12V) | IC50 (KRAS G13C) | IC50 (KRAS G13D) | IC50 (KRAS Q61H) | IC50 (KRAS WT) | IC50 (NRAS G12C) | IC50 (NRAS Q61K) | IC50 (NRAS Q61R) | IC50 (NRAS WT) | IC50 (NCI-H358 (K-Ras G12C)) | IC50 [3] | IC50 [2] |
| --- | --- | --- | --- | --- | --- | --- | --- | --- | --- | --- | --- | --- | --- | --- | --- | --- |
| CCn1c(-c2cccnc2[C@H](C)OC)c2c3cc(ccc31)-c1csc(n1)C[C@H](NC(=O)[C@H](C(C)C)N(C)C(=O)N1CCN(C)[C@@H](c3ccccc3)C1)C(=O)N1CCC[C@H](N1)C(=O)OCC(C)(C)C2 [Compound A524] | 100 to 1000 nM | 100 to 1000 nM | 1000 to 10000 nM | 1000 to 10000 nM | 1000 to 10000 nM | 100 to 1000 nM | 1000 to 10000 nM | 100 to 1000 nM | 100 to 1000 nM | 100 to 1000 nM | 100 to 1000 nM | 1000 to 10000 nM | 100 to 1000 nM | 10 to 100 nM | 100 to 1000 nM | 100 to 1000 nM |
| CCn1c(-c2cccnc2[C@H](C)OC)c2c3cc(ccc31)-c1csc(n1)C[C@H](NC(=O)[C@H](C(C)C)N(C)C(=O)N(C)[C@H]1CCN(C)C1)C(=O)N1CCC[C@H](N1)C(=O)OCC(C)(C)C2 [Compound A563] | 10 to 100 nM | 100 to 1000 nM | 100 to 1000 nM | 100 to 1000 nM | 1000 to 10000 nM | 100 to 1000 nM | 100 to 1000 nM | 10 to 100 nM | 100 to 1000 nM | 100 to 1000 nM | 100 to 1000 nM | 100 to 1000 nM | 100 to 1000 nM | 100 to 1000 nM | 100 to 1000 nM | 10 to 100 nM |
| CCn1c(-c2cccnc2[C@H](C)OC)c2c3cc(ccc31)-c1csc(n1)C[C@H](NC(=O)[C@H](C(C)C)N(C)C(=O)N1C[C@H]3CCN(C)[C@H]3C1)C(=O)N1CCC[C@H](N1)C(=O)OCC(C)(C)C2 [Compound A568] | 10 to 100 nM | 100 to 1000 nM | 100 to 1000 nM | 100 to 1000 nM | 100 to 1000 nM | 100 to 1000 nM | 100 to 1000 nM | 100 to 1000 nM | 100 to 1000 nM | 100 to 1000 nM | 100 to 1000 nM | 100 to 1000 nM | 100 to 1000 nM | 10 to 100 nM | 10 to 100 nM | 100 to 1000 nM |

Reference: US20250195521A1 (Revolution Medicines, Inc., priority 2020, published 2025)
